Test results as given in patent publication US20250283050A1, “METHOD OF CANCER TREATMENT” (priority 2021, published 2025).
“Also recorded” adds a separate entry of the source.

How the values were obtained:
stomach cancer = assay: en bloc tumor culture with chemotherapeutic agent and Hom-1-TAMs: stomach cancer; format: cell-based; settings: agent plus Hom-1-TAMs
Protocol: (§1) Besides CRC, Hom-1-TAMs reverse immune polarity of PDAC and NSCLC TME (data not shown). The effects of Hom-1-TAM on tumoricidal effects of DOX were further explored on other tumor types, such as PDAC, NSLC, esophageal cancer and stomach cancers.
(§2) Additional chemo-reagents used in this study are listed below.
(§3) Tumor tissue were washed with 1×PBS buffer plus antibiotics and then cut into 0.5 cm pieces. Tissues were cultured in 2 mL of RPMI 1640 medium, supplemented with 2-10% FBS (Sigma) and 1% antibiotic-antimycotic solution (Gibco) in 24-well plate (Corning). The cultures were incubated at a 37° C., 5% CO2 incubator. […] To evaluate the effect of chemotherapeutic agents, chemo-reagents at indicated concentration or PBS was used instead of the anti-PD-1 antibody. For en bloc tissue and macrophage co-culture assay, 0.25×10^6 GFP-Hom-1 or control GFP transfected autologous macrophages of the same patient were added to the en bloc tissue culture wells. After gently shaking, the plate was incubated at 37° C., 5% CO2 for 3-5 days. The en bloc tissues were then subjected to single 1 cell isolation and analysis as described.

ovarian cancer = assay: en bloc tumor culture with chemotherapeutic agent and Hom-1-TAMs: ovarian cancer; format: cell-based; settings: agent plus Hom-1-TAMs
Protocol: as §2, §3

CD8 T cells in NSCLC-TME = assay: en bloc NSCLC culture: PD-1 antibody activation of CD8 T cells (FACS and ELISA of IL-2, IFN-γ); format: cell-based, human
Protocol: Tumor infiltrating T (TIL) cells and TAMs were then isolated, and their functional status were determined by FACS analysis.
Single cell suspensions were then generated and stained with FITC conjugated anti-CD8 antibody. The cells were then fixed, permeabilized, stained with PE-conjugated anti-IL2, or anti-IFNy antibodies and analyzed by a flow cytometry.
The culture media were collected after 48 hours. The levels of IL-2, and IFN-γ were quantified using ELISA kits, and statistical significance was determined by a two-way ANOVA analysis.
Levels of IL-1B, IL-2, IFN-γ and TNF-α were quantified using ELISA kits obtained from eBiosciences. Analyses were conducted according to the manufacturer's instructions. Triplicate wells were plated for each condition.
as §3, with “After gently shaking, the plate was incubated at 37° C., 5% CO2 for 3-5 days. The en bloc tissues were then subjected to single 1 cell isolation and analysis as described.” left out

[1] = system: TAMs and Treg in NSCLC-TME; assay: en bloc NSCLC culture: effects of PD-1 antibody on TAMs and Treg (FACS, qRT-PCR of Hom-1); format: cell-based, human; settings: 1 μg/mL Pembrolizumab, 48 hours
Protocol: The effects of the treatment on TAMs were determined by FACS analysis of cell surface expression of CD68 and CD206 and qRT-PCR analysis of Hom-1 expression levels.
Total RNA was isolated by the TRIzol reagent (Life Technologies) and RNA amounts were measured by NanoDrop 2000 (Thermo Scientific). Equal amount of RNA was used for first-strand cDNA synthesis with SuperScript III First-Strand Synthesis System (Life Technologies) according to the manufacturer's protocol. The AccuPrime Taq DNA polymerase system (Life Technologies) was used to amplify Hom-1 cDNA with conventional PCR. Quantitative measurements of Hom-1 and other cDNA were carried out with SYBR Green, using a Mastercycler ep Gradient S (Eppendorf). GAPDH was used as a house keeping gene to normalize mRNA expression. Relative expression profiles of mRNAs were calculated using the comparative Ct method (DDCT method).
Tumor tissue were washed with 1×PBS buffer plus antibiotics and then cut into 0.5 cm pieces. Tissues were cultured in 2 mL of RPMI 1640 medium, supplemented with 2-10% FBS (Sigma) and 1% antibiotic-antimycotic solution (Gibco) in 24-well plate (Corning). The cultures were incubated at a 37° C., 5% CO2 incubator. […] To evaluate the effect of chemotherapeutic agents, chemo-reagents at indicated concentration or PBS was used instead of the anti-PD-1 antibody. […]

NSCLC cancer cells = assay: en bloc NSCLC culture: cancer cell viability by PI-staining and FACS; format: cell-based, human; settings: PD-1 antibody alone, 5 days
Protocol: Single cell suspensions were then obtained by mechanical disruption. The tumor cells were fixed and permeabilized, and were stained with CK7 antibodies and non-tumor epithelial cells were stained with EP4 antibodies. The cells were labeled with PI and percentage of PI positive cells were determined by FACS analysis.
As TME has been implicated in ICI resistance, it was next shown that reversal of immune suppression at NSCLC-TME increased efficacy of PD-1 antibodies. Specifically, en block NSCLC or control nLung tissues were treated with PD-1 or control antibodies, and co-cultured with autologous TAMs transfected with Hom-1 or control GFP. The effects of co-culturing were determined by FACS analysis of cancer or normal epithelial cell viability.
Tumor tissue were washed with 1×PBS buffer plus antibiotics and then cut into 0.5 cm pieces. Tissues were cultured in 2 mL of RPMI 1640 medium, supplemented with 2-10% FBS (Sigma) and 1% antibiotic-antimycotic solution (Gibco) in 24-well plate (Corning). […]
Single cell suspensions generated from en bloc tissue culture were washed with FACS staining solution (PBS plus 2% FBS), fixed and permeabilized (Invitrogen) and then stained with Ber-EP4 antibodies for normal epithelial cells and CK7, CK19 and CK20 for cancer cells for 30 minutes on ice. […] Cell viability were then analyzed with a flow cytometry.

primary human NSCLC = assay: individual NSG-PDX models of primary human NSCLC; format: in vivo, NSG mice; settings: infusion of PD-1 antibody alone
Excerpt: Specifically, individual NSG-PDX models of primary NSCLC were generated by engrafting small pieces of primary NSCLC tissues into subcutaneous space on the dorsal lateral side of NSG mice.
Individual NSG-PDX models of primary human lung cancers were developed according to standard procedure. All animal experiments were approved by the Institutional Animal Care and Use Committee. Briefly, 8-week-old NOD.Cg-Prkdc^scid Il2rg^tm1Wjl/SzJ mice (commonly known as NOD scid gamma, or NSG mice) were purchased from the Jackson Laboratory and maintained under specific pathogen-free conditions. NSCLC tumors were cut into around 0.5 cm pieces and then surgically implanted into subcutaneous space on the dorsal side of NSG mice. […] The tumor growth was monitored twice weekly and measured by a caliper for 6 weeks. Tumor volumes were calculated according to the formula ½ (length×width^2).

[2] = system: non-small cell lung cancer (NSCLC); assay: en bloc tumor culture with chemotherapeutic agent and Hom-1-TAMs: NSCLC; format: cell-based; settings: agent plus Hom-1-TAMs
Protocol: as §1, §2, §3

esophageal cancer = assay: en bloc tumor culture with chemotherapeutic agent and Hom-1-TAMs: esophageal cancer; format: cell-based; settings: agent plus Hom-1-TAMs
Protocol: as §1, §2, §3

Q: With `CC(=O)O[C@H]1C(=O)[C@@]2(C)[C@H]([C@H](OC(=O)c3ccccc3)[C@]3(O)C[C@H](OC(=O)[C@H](O)[C@@H](NC(=O)c4ccccc4)c4ccccc4)C(C)=C1C3(C)C)[C@]1(OC(C)=O)CO[C@@H]1C[C@@H]2O` [Taxol] as the compound, how does the “tumoricidal effects promoted by Hom-1-TAMs” value (“tumoricidal effects promoted” below) (stomach cancer) read?
A: promoted

Q: And the “tumoricidal effects promoted” value (ovarian cancer)?
A: promoted

Q: How did the “CD8 T cell activation (expression and secretion of IL-2 and IFN-γ)” value (CD8 T cells in NSCLC-TME; 1 μg/mL Pembrolizumab vs human IgG4, 24 or 48 hours) turn out when Pembrolizumab [PD-1 antibody] was run?
A: activates CD8 T cells in TME; also recorded: activates CD8^+ CTL

Q: And the “dosage dependence of PD-1 antibody effect on CD8 T cell activation” value (CD8 T cells in NSCLC-TME; various concentrations, 48 hours, ELISA)?
A: dosage dependent

Q: And the “phenotypical changes of Treg cells and TAMs” value [1]?
A: no significant phenotypical changes of the Treg cells and TAMs

Q: And the “expression of Hom-1 in TAMs” value ([1]; qRT-PCR)?
A: did not alter the expression of Hom-1 in TAMs

Q: And the “PI-staining of tumor cells (tumoricidal effect)” value (NSCLC cancer cells)?
A: modest tumoricidal effects on cancer cells

Q: What about the “PI-staining of tumor cells (tumoricidal effect)” value (NSCLC cancer cells; listed as anti-PD-1 antibodies) of the same compound?
A: modest increase of PI-staining of tumor cells

Q: What about the inhibition of tumorigenesis (primary human NSCLC) of the same compound?
A: modest inhibition of tumorigenesis

Q: `N.N.[Cl][Pt][Cl]` [Cisplatin] was tested. Which “tumoricidal effects promoted” value [2] did it give?
A: promoted

Q: What about the “tumoricidal effects promoted” value (esophageal cancer) of the same compound?
A: promoted
